Legend:
[1] = tested on: NCI 60 cell line assay (leukemia, non-small cell lung cancer, colon cancer, CNS cancer, melanoma, ovarian cancer, renal cancer, prostate cancer, and breast …); assay: NCI 60 cell line assay, cell proliferation inhibition; type: cell-based, human; conditions: for anti-proliferative activity compared with largazole: 5 μM concentration; for inhibition of cell survival compared with largazole: at 5 μM; for inhibitory activity compared with largazole: at lower concentrations (below 5 μM)
Description: Understanding how these compounds affect cellular HDAC activity is important. Therefore, the biological effects of all these analogues were evaluated. As described in the examples, the analogues JA1-JA6, AA1-AA2, and RF1 were tested in the NCI 60 cell line assay, which includes leukemia, non-small cell lung cancer, colon cancer, CNS cancer, melanoma, ovarian cancer, renal cancer, prostate cancer, and breast cancer cell lines. […] The analogues were tested in the NCI 60 cell line assay using standard assay protocol. The NCI 60 cell line assay includes leukemia, non-small cell lung cancer, colon cancer, CNS cancer, melanoma, ovarian cancer, renal cancer, prostate cancer, and breast cancer cell lines. Results of the cell proliferation inhibition studies at a single dose of 10 μM are shown in FIGS. 16-21, and FIGS. 26-27, and results of the dose response studies for JA1, JA2, and J3 are shown in FIGS. 22-24. FIGS. 26-27 show the results of single dose response evaluations of AA1 and AA2, respectively, in the NCI 60 cell line assay.

LNCaP = conditions: cited from earlier work
PC-3 = conditions: cited from earlier work
HDAC isoforms = conditions: cited from earlier work

Row | SMILES | anti-proliferative activity compared with largazole [1] | inhibition of cell survival compared with largazole [1] | inhibitory activity compared with largazole [1] | also measured
1 | CCCCCCCC(=O)SCC/C=C/[C@@H]1CC(=O)NCCOCCOCC(=O)N[C@@H](C(C)C)C(=O)O1 [JA1] | equivalent to largazole | nearly as effectively as largazole | less inhibitory activity | 
2 | CCCCCCCC(=O)SCC/C=C/[C@@H]1CC(=O)NCc2cccc(n2)CN(C)CC(=O)N[C@@H](C(C)C)C(=O)O1 [JA3] | equivalent to largazole | nearly as effectively as largazole | less inhibitory activity | 
3 | CCCCCCCC(=O)SCCC=CC1CC(=O)NCc2nc(cs2)C2=NC(C)(CS2)C(=O)NC(C(C)C)C(=O)O1 (centres unmarked) [C-2 epimer of largazole] |  |  |  | inhibition of viability compared with largazole (LNCaP): more potent than largazole; inhibition of viability compared with largazole (PC-3): more potent than largazole; inhibitory potency against HDAC isoforms (HDAC isoforms): sub-micromolar
4 | CCCCCCCC(=O)SCC/C=C/[C@@H]1CC(=O)NCc2cccc(n2)-c2cccc(n2)C(=O)N[C@@H](C(C)C)C(=O)O1 [JA2] |  |  |  | potency rank among the analogues [1]: most potent analogue; anti-proliferative activity compared to largazole ([1]; at concentrations greater than 0.1 μM): higher anti-proliferative activity compared to largazole

— patent US9469656B2, “HDAC inhibitors as anti-cancer agents” (The University of Toledo, priority 2014, dated 2016)
